For one test, the target named is T1, PKC epsilon (Homo sapiens, UniProt Q02156).
T1 construct: purchased Invitrogen P2282
T1 sequence (Q02156 1-737): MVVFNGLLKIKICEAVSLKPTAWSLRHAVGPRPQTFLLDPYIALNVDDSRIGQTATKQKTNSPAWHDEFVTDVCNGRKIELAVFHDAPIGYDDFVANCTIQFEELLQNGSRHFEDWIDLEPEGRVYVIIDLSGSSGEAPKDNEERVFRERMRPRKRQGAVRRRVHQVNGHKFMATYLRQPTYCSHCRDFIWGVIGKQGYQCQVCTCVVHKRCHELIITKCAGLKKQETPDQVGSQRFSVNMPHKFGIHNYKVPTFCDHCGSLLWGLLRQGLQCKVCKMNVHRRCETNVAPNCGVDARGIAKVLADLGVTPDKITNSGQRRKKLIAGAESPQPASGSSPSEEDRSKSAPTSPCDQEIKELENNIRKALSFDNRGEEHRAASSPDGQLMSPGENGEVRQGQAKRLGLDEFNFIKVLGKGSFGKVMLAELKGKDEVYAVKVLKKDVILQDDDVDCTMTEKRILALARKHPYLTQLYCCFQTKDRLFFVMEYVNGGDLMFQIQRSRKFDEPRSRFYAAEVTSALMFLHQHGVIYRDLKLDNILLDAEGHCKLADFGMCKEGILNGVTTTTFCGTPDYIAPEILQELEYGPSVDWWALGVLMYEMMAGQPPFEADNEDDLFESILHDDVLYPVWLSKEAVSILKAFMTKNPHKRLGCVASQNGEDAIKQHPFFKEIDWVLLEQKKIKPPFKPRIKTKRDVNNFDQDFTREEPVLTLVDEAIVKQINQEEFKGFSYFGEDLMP
Nature of the test: Biochemical assay for PKC epsilon (fluorescence polarization, Protein Kinase C Assay Kit, Red). The following applies: read-out: IC50 μM PKCε. The essentials: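 PKC epsilon at 10 ng/ml final was preincubated 30 min at room temperature with compound in HEPES pH 7.4 with DTT and Triton X-100. ATP/protein substrate was then added in buffer with MgCl2 and CaCl2 for 80 min. The reaction was stopped with EDTA, phosphorylation was detected by fluorescence polarization with rhodamine tracer and anti-phosphoserine antibody, and IC50 values came from curve fits.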
For orientation: Polarisation of emitted light reports the rotation of a fluorescent probe.

Another test concerns the target T2, human ROCKα/ROCKII mix (Homo sapiens, UniProt O75116).
T2 construct: purchased Upstate Biotechnology 14-451
The experiment in a line: Biochemical assay for ROCK (fluorescence polarization, ROCK IMAP Kit).

The mark [1] stands for this setting: Table 2, compounds of Formula XIII.
Setting [2] is: compounds of Formula XIV, Table 3.

Read-outs that look alike come from different tables or passages of the source. A value given as a limit tells only on which side of the number the result lay.

T2 sequence (O75116 11-552 limits assumed): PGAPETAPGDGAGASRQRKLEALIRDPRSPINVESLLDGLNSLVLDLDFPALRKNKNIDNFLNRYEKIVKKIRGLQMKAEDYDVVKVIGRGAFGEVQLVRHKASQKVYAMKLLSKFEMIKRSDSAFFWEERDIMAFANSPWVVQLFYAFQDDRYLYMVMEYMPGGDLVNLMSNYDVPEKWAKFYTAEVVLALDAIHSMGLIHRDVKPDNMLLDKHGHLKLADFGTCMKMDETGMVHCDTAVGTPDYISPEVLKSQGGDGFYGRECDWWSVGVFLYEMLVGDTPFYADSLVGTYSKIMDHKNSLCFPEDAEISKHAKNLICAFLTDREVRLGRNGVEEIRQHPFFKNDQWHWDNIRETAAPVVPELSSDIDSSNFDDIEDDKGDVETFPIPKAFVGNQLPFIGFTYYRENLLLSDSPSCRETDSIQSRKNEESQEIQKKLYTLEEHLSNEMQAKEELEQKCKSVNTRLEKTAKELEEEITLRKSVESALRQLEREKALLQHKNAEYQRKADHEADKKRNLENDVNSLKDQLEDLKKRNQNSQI

In the case of `CC1=C(C(=O)NCC(N)c2ccc(C(=O)Nc3ccncc3)cc2)Cc2ccccc21` (stereo not drawn) [Compound 165, 3-Methyl-1H-indene-2-carboxylic acid {2-amino-2-[4-(pyridin-4-ylcarbamoyl)-phenyl]-ethyl}-amide], the IC50 on PKC epsilon (setting [1]) and on human ROCKα/ROCKII mix (setting [1]) was 0.5 to 5 µM in each case.

Regarding `NC(CNC(=O)c1ccccc1-c1ccccc1)c1ccc(C(=O)Nc2ccncc2)cc1` (stereo not drawn) [Compound 87, Biphenyl-2-carboxylic acid {2-amino-2-[4-(pyridin-4-ylcarbamoyl)-phenyl]-ethyl}-amide], the IC50 on PKC epsilon (setting [1]) and against human ROCKα/ROCKII mix (setting [1]) was 0.5 to 5 µM each time.

As to “4-{1-Amino-2-[(pyridin-2- ylmethyl)-carbamoyl]-ethyl}- N-pyridin-4-yl-benzamide [Compound 277]”, the IC50 on PKC epsilon (setting [2]) was 0.5 to 5 µM; on human ROCKα/ROCKII mix (setting [2]), 0.05 to 0.5 µM.

With `COc1cccc(CC(=O)N2CCCC2C(N)c2ccc(C(=O)Nc3ccncc3)cc2)c1` (stereo not drawn) [Compound 527, 4-(Amino-{1-[2-(3-methoxy-phenyl)-acetyl]-pyrrolidin-2-yl}-methyl)-N-pyridin-4-yl-benzamide], the IC50 at PKC epsilon and against human ROCKα/ROCKII mix was 0.5 to 5 µM each time.

Take `NC(CNC(=O)CC1CCCCC1)c1ccc(C(=O)Nc2ccncc2)cc1` (stereo not drawn) [Compound 50, 4-[1-Amino-2-(2-cyclohexyl-acetylamino)-ethyl]-N-pyridin-4-yl-benzamide]: the IC50 on PKC epsilon (setting [1]) and against human ROCKα/ROCKII mix (setting [1]) was 0.5 to 5 µM each time.

For `NC(CNC(=O)CC1C=CCC1)c1ccc(C(=O)Nc2ccncc2)cc1` (stereo not drawn) [Compound 48, 4-[1-Amino-2-(2-cyclopent-2-enyl-acetylamino)-ethyl]-N-pyridin-4-yl-benzamide], the figures for the IC50 on PKC epsilon (setting [1]) and against human ROCKα/ROCKII mix (setting [1]) were 0.5 to 5 µM and 0.05 to 0.5 µM, respectively.

For `CCN(CC)c1ccc(C(=O)NCC(N)c2ccc(C(=O)Nc3ccncc3)cc2)cc1` (stereo not drawn) [Compound 81, 4-[1-amino-2-(4-diethylamino-benzoylamino)-ethyl]-N-pyridin-4-yl-benzamide], the values for the IC50 on PKC epsilon (setting [1]) and against human ROCKα/ROCKII mix (setting [1]) were 5 to 50 µM and 0.5 to 5 µM, respectively.

`COc1ccc(NC(=O)CC(N)c2ccc(C(=O)Nc3ccncc3)cc2)cc1` (stereo not drawn) [Compound 319, 4-[1-Amino-2-(4-methoxy-phenyl-carbamoyl)-ethyl]-N-pyridin-4-yl-benzamide]: the IC50 at PKC epsilon (setting [2]) lay in the range of 0.5 to 5 µM; at human ROCKα/ROCKII mix (setting [2]) it was 0.05 to 0.5 µM.

For “4-(1-Amino-2-{[2-(2-fluoro- phenyl)-acetyl]-methyl- amino}-ethyl)- N-pyridin-4-yl-benzamide [Compound 466]”, the IC50 lay within 5 to 50 µM on PKC epsilon and 0.5 to 5 µM on human ROCKα/ROCKII mix.

For the molecule `CC(C)(C(=O)NCC(N)c1ccc(C(=O)Nc2ccncc2)cc1)c1ccc(F)cc1Cl` (stereo not drawn) [Compound 386, 4-{1-Amino-2-[2-(2-chloro-4-fluoro-phenyl)-2-methyl-propionylamino]-ethyl}-N-pyridin-4-yl-benzamide], the IC50 is below 0.05 µM at PKC epsilon (setting [1]) and 0.05 to 0.5 µM at human ROCKα/ROCKII mix (setting [1]).

Turning to `N#Cc1ccc(C(=O)NCC(N)c2ccc(C(=O)Nc3ccncc3)cc2)cc1` (stereo not drawn) [Compound 95, 4-[1-amino-2-(4-cyano-benzoylamino)-ethyl]-N-pyridin-4-yl-benzamide], the IC50 at PKC epsilon (setting [1]) lay within 5 to 50 µM; against human ROCKα/ROCKII mix (setting [1]) it was 0.5 to 5 µM.

Consider `CN(CC(N)c1ccc(C(=O)Nc2ccncc2)cc1)C(=O)Cc1cc(F)ccc1F` (stereo not drawn) [Compound 478, 4-(1-Amino-2-{[2-(2,5-difluoro-phenyl)-acetyl]-methyl-amino}-ethyl)-N-pyridin-4-yl-benzamide], for which the IC50 on PKC epsilon is 5 to 50 µM; on human ROCKα/ROCKII mix, 0.5 to 5 µM.

Turning to `COc1cccc(CCNC(=O)CC(N)c2ccc(C(=O)Nc3ccncc3)cc2)c1` (stereo not drawn) [Compound 289, 4-{1-Amino-2-[2-(3-methoxy-phenyl)-ethylcarbamoyl]-ethyl}-N-pyridin-4-yl-benzamide], the values for the IC50 on PKC epsilon (setting [2]) and against human ROCKα/ROCKII mix (setting [2]) were 0.5 to 5 µM and 0.05 to 0.5 µM, respectively.

On to `NC(CNC(=O)CC(c1ccccc1)c1ccccc1)c1ccc(C(=O)Nc2ccncc2)cc1` (stereo not drawn) [Compound 160, 4-[1-Amino-2-(3,3-diphenyl-propionylamino)-ethyl]-N-pyridin-4-yl-benzamide], for which the results for the IC50 at PKC epsilon (setting [1]) and against human ROCKα/ROCKII mix (setting [1]) were 5 to 50 µM and 0.05 to 0.5 µM, respectively.

Consider `NC(CNC(=O)c1cccnc1)c1ccc(C(=O)Nc2ccncc2)cc1` (stereo not drawn) [Compound 106, N-{2-Amino-2-[4-(pyridin-4-ylcarbamoyl)-phenyl]-ethyl}-nicotinamide], for which the IC50 at PKC epsilon (setting [1]) and against human ROCKα/ROCKII mix (setting [1]) was 0.5 to 5 µM in each case.

Regarding `NC(c1ccc(C(=O)Nc2ccncc2)cc1)C1CCCN1C(=O)Cc1cccc(F)c1` (stereo not drawn) [Compound 569], the IC50 is 5 to 50 µM on PKC epsilon and 0.5 to 5 µM against human ROCKα/ROCKII mix.

`CC(C)(C(=O)N1CCCC1C(N)c1ccc(C(=O)Nc2ccncc2)cc1)c1ccc(Cl)c(Cl)c1` (stereo not drawn) [Compound 593, 4-(Amino-{1-[2-(3,4-dichloro-phenyl)-2-methyl-propionyl]-pyrrolidin-2-yl}-methyl)-N-pyridin-4-yl-benzamide]: the IC50 on PKC epsilon lay in the range of 5 to 50 µM; on human ROCKα/ROCKII mix, 0.5 to 5 µM.

In the case of “4-[1-Amino-2-(1-(R)-p-tolyl- propylcarbamoyl)-ethyl]-N- pyridin-4-yl-benzamide [Compound 220]”, the IC50 on PKC epsilon (setting [2]) lay in the range of 0.5 to 5 µM; against human ROCKα/ROCKII mix (setting [2]), 0.05 to 0.5 µM.

Consider `COCC(=O)NCC(N)c1ccc(C(=O)Nc2ccncc2)cc1` (stereo not drawn) [Compound 57, 4-[1-Amino-2-(2-methoxy-acetylamino)-ethyl]-N-pyridin-4-yl-benzamide], for which the IC50 at PKC epsilon (setting [1]) is 5 to 50 µM; on human ROCKα/ROCKII mix (setting [1]), 0.5 to 5 µM.

`CN(CC(N)c1ccc(C(=O)Nc2ccncc2)cc1)C(=O)C1(c2ccc(F)c(Cl)c2)CC1` (stereo not drawn) [Compound 506, 4-(1-Amino-2-{[1-(3-chloro-4-fluoro-phenyl)-cyclopropanecarbonyl]-methyl-amino}-ethyl)-N-pyridin-4-yl-benzamide]: the results for the IC50 on PKC epsilon and against human ROCKα/ROCKII mix were 5 to 50 µM and 0.5 to 5 µM, respectively.

As for `NC(CC(=O)NCCc1cccs1)c1ccc(C(=O)Nc2ccncc2)cc1` (stereo not drawn) [Compound 311, 4-[1-amino-2-(2-thiophen-2-yl-ethylcarbamoyl)-ethyl]-N-pyridin-4-yl-benzamide], the concentration for half-maximal inhibition (IC50) on PKC epsilon (setting [2]) was 0.5 to 5 µM; at human ROCKα/ROCKII mix (setting [2]) it was 0.05 to 0.5 µM.

Consider `NC(CNC(=O)Cc1c[nH]c2ccccc12)c1ccc(C(=O)Nc2ccncc2)cc1` (stereo not drawn) [Compound 152, 4-[1-Amino-2-(2-1H-indol-3-yl-acetylamino)-ethyl]-N-pyridin-4-yl-benzamide], for which the IC50 was 0.5 to 5 µM on PKC epsilon (setting [1]) and 0.05 to 0.5 µM on human ROCKα/ROCKII mix (setting [1]).

`NC(CNC(=O)c1ccccc1Oc1ccccc1)c1ccc(C(=O)Nc2ccncc2)cc1` (stereo not drawn) [Compound 76, 4-[1-amino-2-(2-phenoxy-benzoylamino)-ethyl]-N-pyridin-4-yl-benzamide]: the IC50 at PKC epsilon (setting [1]) and at human ROCKα/ROCKII mix (setting [1]) was 0.5 to 5 µM throughout.

Turning to `NC(CNC(=O)c1cnccn1)c1ccc(C(=O)Nc2ccncc2)cc1` (stereo not drawn) [Compound 108, Pyrazine-2-carboxylic acid {2-amino-2-[4-(pyridin-4-ylcarbamoyl)-phenyl]-ethyl}-amide], the values for the IC50 at PKC epsilon (setting [1]) and against human ROCKα/ROCKII mix (setting [1]) were 5 to 50 µM and 0.5 to 5 µM, respectively.

Regarding `NC(CNC(=O)Cc1ccc(-c2ccccc2)cc1)c1ccc(C(=O)Nc2ccncc2)cc1` (stereo not drawn) [Compound 146, 4-[1-Amino-2-(2-biphenyl-4-yl-acetylamino)-ethyl]-N-pyridin-4-yl-benzamide], the IC50 at PKC epsilon (setting [1]) was 5 to 50 µM; on human ROCKα/ROCKII mix (setting [1]), 0.5 to 5 µM.

As to “4-{1-Amino-2-[methyl-(2- methyl-2-thiophen-2-yl- propionyl)- amino]-ethyl}- N-pyridin-4-yl-benzamide [Compound 447]”, the IC50 at PKC epsilon and at human ROCKα/ROCKII mix was 0.5 to 5 µM in each case.

Regarding `NC(CC(=O)NCc1ccc([N+](=O)[O-])cc1)c1ccc(C(=O)Nc2ccncc2)cc1` (stereo not drawn) [Compound 273, 4-[1-Amino-2-(4-nitro-benzylcarbamoyl)-ethyl]-N-pyridin-4-yl-benzamide], the IC50 on PKC epsilon (setting [2]) lay in the range of 0.5 to 5 µM; against human ROCKα/ROCKII mix (setting [2]), 0.05 to 0.5 µM.

Turning to `NC(CC(=O)NCc1cccc(Cl)c1Cl)c1ccc(C(=O)Nc2ccncc2)cc1` (stereo not drawn) [Compound 253, 4-[1-Amino-2-(2,3-dichloro-benzylcarbamoyl)-ethyl]-N-pyridin-4-yl-benzamide], the IC50 on PKC epsilon (setting [2]) and against human ROCKα/ROCKII mix (setting [2]) was 0.05 to 0.5 µM each time.

For the molecule `CC(Cc1ccc(Cl)cc1)NC(=O)CC(N)c1ccc(C(=O)Nc2ccncc2)cc1` (stereo not drawn) [Compound 300, 4-{1-Amino-2-(2-(4-chloro-phenyl)-1-methyl-ethylcarbamoyl]-ethyl}-N-pyridin-4-yl-benzamide], the IC50 was in the range of 0.5 to 5 µM at PKC epsilon (setting [2]) and 0.05 to 0.5 µM against human ROCKα/ROCKII mix (setting [2]).

For `NC(CNC(=O)Cc1csc(Nc2ccccc2)n1)c1ccc(C(=O)Nc2ccncc2)cc1` (stereo not drawn) [Compound 155, 4-{1-Amino-2-[2-(2-phenylamino-thiazol-4-yl)-acetylamino]-ethyl}-N-pyridin-4-yl-benzamide], the IC50 at PKC epsilon (setting [1]) and at human ROCKα/ROCKII mix (setting [1]) was 0.5 to 5 µM each time.

Broadly, the IC50 is the concentration that inhibits the measured activity by half.

The record behind these values is patent US20100168102A9, “Amide Derivatives as Kinase Inhibitors” (Devgen NV, priority 2005, published 2010).
